Data from PubChem BioAssay (NCI).
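Test compounds were applied to cells in 96-well plates for 48 hours at 5 doses. GI50 = concentration required for 50% inhibition of growth. Definition used: TGI = concentration required for complete inhibition of growth.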

Legend:
Assay in all cases: inhibition of tumour cell growth, NCI panel, 48 h
OVCAR-3 ovarian = system: OVCAR-3 ovarian
KM12 colon = system: KM12 colon
DU-145 prostate = system: DU-145 prostate
HCT-15 colon = system: HCT-15 colon
A498 renal = system: A498 renal
ACHN renal = system: ACHN renal
NCI-H23 lung = system: NCI-H23 lung
SF-268 CNS = system: SF-268 CNS
IGROV1 ovarian = system: IGROV1 ovarian
MALME-3M melanoma = system: MALME-3M melanoma

| SMILES | TGI (OVCAR-3 ovarian) [µM] | TGI (KM12 colon) [µM] | TGI (DU-145 prostate) [µM] | TGI (HCT-15 colon) [µM] | TGI (A498 renal) [µM] | TGI (ACHN renal) [µM] | TGI (NCI-H23 lung) [µM] | TGI (SF-268 CNS) [µM] | TGI (IGROV1 ovarian) [µM] | TGI (MALME-3M melanoma) [µM] | GI50 (OVCAR-3 ovarian) [µM] | GI50 (KM12 colon) [µM] | GI50 (DU-145 prostate) [µM] | GI50 (MALME-3M melanoma) [µM] | GI50 (HCT-15 colon) [µM] | GI50 (A498 renal) [µM] | GI50 (ACHN renal) [µM] | GI50 (NCI-H23 lung) [µM] | GI50 (SF-268 CNS) [µM] | GI50 (IGROV1 ovarian) [µM] |
| --- | --- | --- | --- | --- | --- | --- | --- | --- | --- | --- | --- | --- | --- | --- | --- | --- | --- | --- | --- | --- |
| Nc1nn2c(=O)c3ccccc3nc2s1 | > 100 | > 100 | > 100 | > 100 | > 100 | > 100 | > 100 | > 100 | > 100 | – | – | – | – | – | – | – | – | – | – | – |
| Cc1cnc2c(c1)C(=O)C1=C(C2=O)C2OC(=O)CC2OC1(C)C (configuration not stated) | 0.153 | 1.73 | 3.02 | 0.202 | 3.75 | 0.39 | 0.986 | 0.623 | 0.424 | 0.191 | – | – | – | – | – | – | – | – | – | – |
| CCOC(=O)/C=C(\C(=O)OCC)n1ccc(=O)n(Cc2cn(COCCOC(C)=O)nn2)c1=O | 48 | > 54.6 | > 100 | 38 | > 69.5 | 17.3 | 32.6 | > 57.6 | 44.3 | 30.6 | – | – | – | – | – | – | – | – | – | – |
| COC(=O)/C(C#N)=C(/NCCN)Nc1ccccc1 | > 100 | – | > 100 | > 100 | > 100 | > 100 | > 100 | > 100 | > 100 | > 100 | – | – | – | – | – | – | – | – | – | – |
| COC(=O)C1=Nc2c(C)nn(-c3ccccc3)c2N=C(c2ccccc2)C1 | > 10 | > 10 | > 10 | > 10 | – | > 10 | > 10 | > 10 | > 10 | > 10 | – | – | – | – | – | – | – | – | – | – |
| CCOC(=O)c1nnsc1NN | > 100 | > 100 | > 100 | > 100 | – | > 100 | > 100 | > 100 | > 100 | – | – | – | – | – | – | – | – | – | – | – |
| O=C(c1ccncc1)C1C(=O)c2ccccc2C1C1(O)c2ccccc2CC1C(O)c1ccncc1 (configuration not stated) | – | > 100 | – | > 100 | > 100 | > 100 | > 100 | > 100 | > 100 | > 100 | – | – | – | – | – | – | – | – | – | – |
| Cc1c2c(OCC3CCCCO3)nn(C)c(=O)c2c(C)n1-c1ccccc1 (configuration not stated) | 33.3 | 40.4 | 36.9 | 33.4 | 28.3 | 31.1 | 44.2 | 30.7 | 37.8 | 33.1 | – | – | – | – | – | – | – | – | – | – |
| CCCCCCCCCc1nn2c(Cc3ccccc3)nnc2s1 | 37 | 57.7 | 51.4 | 35.4 | 34.2 | 40 | 38.8 | 32.4 | – | – | – | – | – | – | – | – | – | – | – | – |
| O=c1cc(-c2ccccc2)oc2c(-c3cc(Cl)cc4c(=O)cc(-c5ccccc5)oc34)cc(Cl)cc12 | 80.5 | > 100 | > 100 | > 100 | 56.7 | > 100 | > 100 | > 100 | > 100 | 75.8 | – | – | – | – | – | – | – | – | – | – |
| COc1cc(/C=C/C=C2\CC/C(=C\C=C\c3ccc(O)c(OC)c3)C2=O)ccc1O | > 100 | > 100 | > 100 | > 100 | > 100 | > 100 | > 100 | > 100 | > 100 | > 100 | – | – | – | – | – | – | – | – | – | – |
| COc1ccc(CN2C3CC2CN(c2ccc(-c4cc(OCC(C)(C)O)cn5ncc(C#N)c45)cn2)C3)cn1 | > 100 | > 100 | > 100 | > 100 | 3.7 | > 100 | > 100 | > 100 | > 100 | > 100 | > 100 | > 100 | 26.2 | > 100 | 37.2 | 0.51 | 6.86 | 17.8 | 4.6 | 4.17 |
| CC(=O)c1ccc2c(c1)CC1(C2)Cc2ccccc2C1=O (configuration not stated) | > 100 | > 100 | > 100 | > 100 | > 100 | > 100 | > 100 | > 100 | > 100 | > 100 | – | – | – | – | – | – | – | – | – | – |
| COc1cc2c(cc1Cc1c(F)cccc1Cl)nc(-c1c(F)cccc1Cl)n2Cc1c(F)cccc1Cl | > 100 | > 100 | > 100 | > 100 | 84 | > 100 | > 100 | > 100 | > 100 | 79.9 | – | – | – | – | – | – | – | – | – | – |
| CC(C)OC(=O)OCSc1ccccc1N=Cc1cccc([N+](=O)[O-])c1 | > 10 | > 10 | > 10 | > 10 | > 10 | > 10 | > 10 | > 10 | > 10 | > 10 | – | – | – | – | – | – | – | – | – | – |
| [O-]/[N+](=C\c1ccccc1OC(=S)S)c1ccc(Cl)cc1 | > 100 | > 100 | > 100 | > 100 | > 100 | > 100 | > 100 | 77.7 | 30.7 | > 100 | – | – | – | – | – | – | – | – | – | – |
| CC(=O)OC(Cn1cncn1)(Cn1cncn1)c1ccc(Cl)cc1Cl | > 100 | > 100 | > 100 | > 100 | > 100 | – | – | > 100 | > 100 | – | – | – | – | – | – | – | – | – | – | – |
| C[n+]1c(-c2ccc(/C=C/C=N\NC(=O)c3ccc(C(=O)N/N=C\C=C\c4ccc(-c5cn6ccccc6[n+]5C)cc4)cc3)cc2)cn2ccccc21 | > 100 | > 57.5 | 97.6 | > 100 | > 100 | > 100 | > 100 | > 100 | > 100 | > 100 | – | – | – | – | – | – | – | – | – | – |
| C=Cc1ccccc1C1(O)C=CC(OC)(OC)C=C1 | 7.53 | 19.4 | 68.8 | 13.1 | 41 | 39 | 16.2 | 33.9 | 27 | 27.8 | – | – | – | – | – | – | – | – | – | – |
| CC(=O)OC1CCC2C3CCc4c(C)ccc(OS(=O)(=O)c5ccccc5)c4C3CCC12C (configuration not stated) | 46.7 | – | > 100 | > 100 | > 100 | > 100 | > 100 | > 100 | > 100 | > 100 | – | – | – | – | – | – | – | – | – | – |
